PubChem BioAssay AID1963843 (Molecular Pharmacology Branch, DTP, NCI, 2024)
pIC50: −log10 of the molar value. Values joined by “and” are separate entries in the source; they are usually repeats but may differ in a detail not shown here. Equal values may be shown once.

Tested on: 616215-338-R-J1-PDC complex spheroid viability
Assay: Anticancer human tumor 616215-338-R-J1-PDC patient-derived colon adenocarcinoma cell line growth inhibition [POLQ]
Settings: for viability, T/C: stronger effect = lower value
Method: Multicellular complex tumor spheroid response to Polymerase (POL) inhibitors (novobiocin, ART-558, RP6685) in combination with a variety of drugs and investigational agents in selected tumor cell lines
The POL inhibitors (novobiocin, ART-558, and RP6685) were evaluated both individually and in combination with standard of care and investigational anticancer small molecules within a complex spheroid model of solid tumors. . Complex spheroids include a stromal component modeled by human endothelial cells (HUVEC) and fibroblasts modeled by human mesenchymal stem cells (MSCs). The concentration ranges selected for each drug and investigational agent were based upon clinically achievable concentrations if the clinical Cmax of the agent was known.
Compounds. The drugs and investigational agents: novobiocin (NSC847541), ART-558 (NSC835418), RP-6685 (NSC848927), peposertib (NSC802822), ceralasertib (NSC780249), elimusertib (NSC800525), camonsertib (NSC841442), AZD-1390 (NSC803789), olaparib (NSC753686), talazoparib (NSC767125), rucaparib (NSC756644), sotorasib (NSC818433), MRTX-1133 (NSC836407), SN-38 (NSC673596), topotecan (NSC609699), epotoside (NSC141540), doxorubicin (NSC123127), gemcitabine (NSC613327), 5-fluorouracil (NSC19893), paclitaxel (NSC125973), vemurafenib (NSC761431), MSA-2 (NSC828583), SN-011 (NSC837082), adavosertib (NSC754352), prexasertib (NSC758257), carboplatin (NSC241240) and oxaliplatin (NSC266046), were obtained from the National Cancer Institute (NCI) Developmental Therapeutics Program Chemical Repository (21). The FDA-approved anticancer drug set is available from the Developmental Therapeutics Program at https://dtp.cancer.gov/organization/dscb/obtaining/. […] The stock solutions were prepared in dimethyl sulfoxide (DMSO, Sigma-Aldrich, St. Louis, MO, cat. D2650), except for the platinum compounds which were prepared in saline (Quality Biological, Gaithersburg, MD, cat. 114-055-101), at 800-fold the tested concentration and stored at -70 degrees C prior to their use. All drugs and investigational agents were tested over a range starting from a high concentration at or near the clinical Cmax and decreasing in half-log increments. If the clinical Cmax for an agent had not been determined, the highest concentration tested was 10 microM, except for SN-38, which was tested at a high concentration of 1 microM.
Cell Culture. All cells were maintained in an incubator at 37 degrees C and 5% CO2 with 95% humidity. The PDC lines were cultured according to standard operating procedures established by the NCI PDMR (https://pdmr.cancer.gov). Table 3 of the manuscript, lists the cell lines along with the number of the three cell types plated to form the mct-spheroids and media for tumor cell growth. After thawing, all PDC lines, except 997537-175-T-J1-PDC and 415267-285-R-J2-PDC, were cultured in Matrigel-coated flasks prepared with a working solution of 1X Ham's F-12 nutrient mix, without supplementation (Thermo Fisher Scientific, cat. 11765054), 100 U/mL penicillin-streptomycin (Thermo Fisher Scientific, cat. 15140122), and 2.5% Matrigel (Corning Inc., Corning, NY, cat. 354248) for the first three passages. The two PDC lines 997537-175-T-J1-PDC and 415267-285-R-J2-PDC were cultured on uncoated flasks. The 857933-349-R-J2-PDC line was cultured in 6C/Colon 1B media containing advanced DMEM/F-12 (Thermo Fisher Scientific, cat. 12634028), 10 mM HEPES (Thermo Fisher Scientific, cat. 15630080), 1X GlutaMAX supplement (Thermo Fisher Scientific, cat. 35050061), 0.1 mg/mL primocin (InvivoGen, San Diego, CA, cat. ant-pm-2), 10% defined fetal bovine serum, heat inactivated (HyClone Laboratories Inc., Logan, UT, cat. SH30070.03HI), 50% L-WRN conditioned media (ATCC, cat. CRL-3276), 1.25 mM N-Acetyl-L-cysteine (Sigma-Aldrich, cat. A9165), 10 mM nicotinamide (Sigma-Aldrich, cat. N0636), 1X B-27 supplement (Thermo Fisher Scientific, cat. 17504044), 1X N-2 supplement (Thermo Fisher Scientific, cat. […]

[1] = compound alone, run of 11/27/2023
[2] = compound alone, run of 12/05/2023
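Note: spheroids exposed to compounds for one week before readout.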
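Throughout, for viability, T/C: percent viability relative to DMSO vehicle wells taken as 100%.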

Row | SMILES | viability, T/C (compound 0.0316 µM) | viability, T/C (compound 0.1 µM) | viability, T/C (compound 0.316 µM) | viability, T/C (compound 1 µM) | viability, T/C (compound 3.16 µM) | viability, T/C (compound 10 µM) | pIC50 [1] | pIC50 (curve of compound) | viability, T/C (compound 0.00316 µM) | viability, T/C (compound 0.01 µM) | pIC50 [2] | viability, T/C (compound 0.000316 µM) | viability, T/C (compound 0.001 µM)
1 | COC1C(OC(N)=O)C(O)C(Oc2ccc3c(O)c(NC(=O)c4ccc(O)c(CC=C(C)C)c4)c(=O)oc3c2C)OC1(C)C (stereo unspecified) | 101% [middle of 13 runs] | 102% [middle of 12 runs] | 103% [middle of 13 runs] | 99.2% [middle of 13 runs] | 101% [middle of 13 runs] | 100% [middle of 13 runs] | < 5.00 |  |  |  |  |  | 
2 | COc1cc(C2c3cc4c(cc3C(OC3OC5COC(C)OC5C(O)C3O)C3COC(=O)C23)OCO4)cc(OC)c1O (stereo unspecified) | 96.8% and 101% and 99.5% | 107% and 95.5% and 104% | 86.7% and 58% and 91.3% | 88.7% and 52.2% and 78.8% | 76.6% and 46.9% and 73% | 46.8% and 28.6% and 54.6% |  | 5.04 and 5.98 and < 5.00 |  |  |  |  | 
3 | COc1cc2cc(C(=O)CCC(=O)O)sc2cc1OC | 99% and 105% and 100% | 97.3% and 102% and 92.3% | 109% and 107% and 92.4% | 95.5% and 105% and 98% | 105% and 104% and 93.1% | 99.8% and 105% and 109% |  | < 5.00 |  |  |  |  | 
4 | COc1ccc([C@@H](O)c2cc(-c3ncnc4cc(N5CCOCC5)ccc34)c(F)cc2Cl)nn1 | 115% and 87.7% and 103% | 107% and 104% and 100% | 105% and 93.9% and 110% | 93.6% and 86.9% and 104% | 100% and 81.2% and 104% | 69.3% and 54.8% and 75.3% |  | < 5.00 |  |  |  |  | 
5 | COc1cccc(OCCCN)c1-c1cc(Nc2cnc(C#N)cn2)n[nH]1 | 88.6% and 68.9% and 76.7% | 86.1% and 63.8% and 55.3% | 64.6% and 33.6% and 49.9% | 55.9% and 30.1% and 34.7% |  |  |  | < 6.00 and 6.82 and 6.70 | 95.5% and 106% and 104% | 101% and 98.7% and 97.4% |  |  | 
6 | COc1cccc2c1C(=O)c1c(O)c3c(c(O)c1C2=O)CC(O)(C(=O)CO)CC3OC1CC(N)C(O)C(C)O1 (stereo unspecified) | 95.8% and 65% and 107% | 89.2% and 52.3% and 101% | 78.2% and 37.8% and 76.8% | 60.1% and 25.3% and 60.5% | 7.28% and 2.34% and 9.83% | 0.55% and 0.17% and 0.93% |  | 5.92 and 6.88 and 5.97 |  |  |  |  | 
7 | Cc1cccc(N(C)C(=O)C2C(O)CCN2c2nc(C)cc(C(F)(F)F)c2C#N)c1 (stereo unspecified) | 97.4% [middle of 13 runs] | 99% [middle of 13 runs] | 100% [middle of 13 runs] | 105% [middle of 13 runs] | 104% [middle of 13 runs] | 102% [middle of 12 runs] | < 5.00 |  |  |  | < 5.00 |  | 
8 | Cn1ncnc1[C@H]1c2n[nH]c(=O)c3cc(F)cc(c23)N[C@@H]1c1ccc(F)cc1 | 110% and 96.1% and 101% | 105% and 87.5% and 106% |  |  |  |  |  | < 7.00 | 102% and 98.1% and 97.2% | 94% and 95.9% and 104% |  | 90.3% and 102% and 97.5% | 104% and 91.8% and 103%
9 | Nc1ccc(C#CCN(C(=O)Cc2ncc(C(F)(F)F)cc2C(F)(F)F)c2ccc(F)cc2)nn1 | 103% [middle of 13 runs] | 104% [middle of 13 runs] | 105% [middle of 13 runs] | 102% [middle of 13 runs] | 102% [middle of 13 runs] | 94.5% [middle of 13 runs] |  |  |  |  | < 5.00 |  | 
10 | Nc1ccn(C2OC(CO)C(O)C2(F)F)c(=O)n1 (stereo unspecified) | 49.9% and 23.8% and 51.6% | 31.7% and 15.1% and 34.2% | 23.7% and 12.2% and 23.2% | 30.1% and 13.1% and 30.2% | 31.8% and 14.3% and 32.1% | 34.7% and 16.4% and 33.6% |  | > 7.50 |  |  |  |  | 
11 | O=C(Nc1ccc(O)c(NS(=O)(=O)c2ccc(F)cc2)c1)c1ccc(-c2ccccc2)cc1 | 104% and 110% and 106% | 107% and 100% and 90.8% | 107% and 108% and 104% | 108% and 92.6% and 100% | 102% and 106% and 114% | 60.7% and 49.2% and 101% |  | < 5.00 and 5.01 |  |  |  |  | 
12 | O=C(c1cc(Cc2n[nH]c(=O)c3ccccc23)ccc1F)N1CCN(C(=O)C2CC2)CC1 | 89.5% and 67.6% and 97.3% | 103% and 72.8% and 110% | 102% and 71.6% and 106% | 101% (2×) and 72.6% | 101% and 73.1% and 87.7% | 99.3% and 58.1% and 60.9% |  | < 5.00 |  |  |  |  | 
13 | O=c1[nH]cc(F)c(=O)[nH]1 | 83.7% and 97.8% and 96% | 96.6% and 86.5% and 89.8% | 68.4% and 54.6% and 65.8% | 65.9% and 43.5% and 65.6% | 63.8% and 43.7% and 60.7% | 62.4% and 39.2% and 60.1% |  |  |  |  |  |  | 
